Data set [1] is described as follows: collision cross section (TIMS, N2 drift gas) of the primary ion; higher = larger gas-phase ion size.
The nature of data set [2]: reversed-phase LC retention time (C18, 15 min MeOH gradient); higher = more hydrophobic / later elution.
The mark [3] stands for this setting: ionization mode: ESI-, ion species: [M-H]-.
Setting [4] is: ionization mode: ESI+, ion species: [M+H]+.

Molecules are shown by their SMILES.

In turn, `CC(=O)OCC(=O)[C@@]1(O)CC[C@H]2[C@@H]3CCC4=CC(=O)CC[C@]4(C)[C@@]3(F)[C@@H](O)C[C@@]21C` [Fludrocortisone-21-acetate] showed a collision cross section in data set [1] (setting [3]) of 197.85 Å². The “reversed-phase LC retention time” value in data set [2] (setting [3]) came to 13.6 min.

`CC(C)N(C(=O)COc1nnc(C(F)(F)F)s1)c1ccc(F)cc1` [Flufenacet] yielded a collision cross section in data set [1] (setting [4]) of 178.11 Å². Also, the “reversed-phase LC retention time” value in data set [2] (setting [4]) stood at 14.9 min.

As for `O=C(O)c1ccccc1Nc1cccc(C(F)(F)F)c1` [Flufenamic acid], the collision cross section in data set [1] (setting [3]) is 159.1 Å². For the same compound, in data set [2] (setting [3]), the “reversed-phase LC retention time” value worked out at 14 min.

Take `O=C(NC(=O)c1c(F)cccc1F)Nc1ccc(Oc2ccc(C(F)(F)F)cc2Cl)cc1F` [Flufenoxuron]: the collision cross section worked out at 204.54 Å² in data set [1] (setting [4]) and 215.68 Å² in data set [1] (setting [3]). For the same compound, the entries for the “reversed-phase LC retention time” value in data set [2] (setting [4]) and in data set [2] (setting [3]) were 17.4 min and 17.8 min, respectively.

Regarding `CC1CCc2cc(F)cc3c(=O)c(C(=O)O)cn1c23` (stereo not given) [Flumequine], the collision cross section was 152.91 Å² in data set [1] (setting [4]) and 166.14 Å² in data set [1] (setting [3]). In addition, the “reversed-phase LC retention time” value in data set [2] (setting [4]) was found to be 11.7 min; in data set [2] (setting [3]), 9.17 min.

Compound `C#CCN1C(=O)COc2cc(F)c(N3C(=O)C4=C(CCCC4)C3=O)cc21` [Flumioxazin] displayed a collision cross section in data set [1] (setting [4]) of 188.98 Å². Also, the “reversed-phase LC retention time” value in data set [2] (setting [4]) turned out to be 13.5 min.

With `CC1(C)O[C@@H]2C[C@H]3[C@@H]4C[C@H](F)C5=CC(=O)C=C[C@]5(C)[C@@]4(F)[C@@H](O)C[C@]3(C)[C@]2(C(=O)CO)O1` [Fluocinolone acetonide], the collision cross section in data set [1] (setting [3]) was 198.83 Å². Further, the “reversed-phase LC retention time” value in data set [2] (setting [3]) came to 13.7 min.

Turning to `O=C(NCc1ncc(C(F)(F)F)cc1Cl)c1c(Cl)cccc1Cl` [Fluopicolide], the collision cross section in data set [1] (setting [4]) was determined as 176.08 Å². In addition, the “reversed-phase LC retention time” value in data set [2] (setting [4]) came to 14.4 min.

Regarding `O=C(NCCc1ncc(C(F)(F)F)cc1Cl)c1ccccc1C(F)(F)F` [Fluopyram], the collision cross section in data set [1] (setting [4]) amounted to 177.5 Å²; in data set [1] (setting [3]), 179.2 Å². Also, the “reversed-phase LC retention time” value in data set [2] (setting [4]) worked out at 14.7 min; in data set [2] (setting [3]), 15.2 min.

In turn, `Oc1ccc(C2(c3ccc(O)cc3)c3ccccc3-c3ccccc32)cc1` [Fluorene-9-bisphenol] came in with a collision cross section in data set [1] (setting [3]) of 194.22 Å². In data set [2] (setting [3]), the “reversed-phase LC retention time” value came out at 15.3 min.

As to `CO/N=C(/C1=NOCCO1)c1ccccc1Oc1ncnc(Oc2ccccc2Cl)c1F` [Fluoxastrobin], the collision cross section in data set [1] (setting [4]) is 205.37 Å². The “reversed-phase LC retention time” value in data set [2] (setting [4]) worked out at 14.8 min.

As for `CNCCC(Oc1ccc(C(F)(F)F)cc1)c1ccccc1` (stereo not given) [Fluoxetine], in data set [1] (setting [4]), the collision cross section is recorded as 177.66 Å². Besides, the “reversed-phase LC retention time” value in data set [2] (setting [4]) stood at 13.4 min.

In the case of `OCCN1CCN(CC/C=C2/c3ccccc3Sc3ccc(C(F)(F)F)cc32)CC1` [Flupentixol_1], the collision cross section in data set [1] (setting [4]) worked out at 200.91 Å². Besides, the “reversed-phase LC retention time” value in data set [2] (setting [4]) is 14.9 min.

As for `O=C1C=C(N(Cc2ccc(Cl)nc2)CC(F)F)CO1` [Flupyradifurone], the figures for the collision cross section in data set [1] (setting [4]) and in data set [1] (setting [3]) were 164.36 Å² and 163.3 Å², respectively. Further, the “reversed-phase LC retention time” value in data set [2] (setting [4]) was found to be 9.35 min; in data set [2] (setting [3]), 9.46 min.

Take `Nc1c(Cl)c(F)nc(OCC(=O)O)c1Cl` [Fluroxypyr]: the collision cross section in data set [1] (setting [3]) was determined as 139.78 Å². Moreover, the “reversed-phase LC retention time” value in data set [2] (setting [3]) was determined as 7.61 min.

For `CNC1=C(c2cccc(C(F)(F)F)c2)C(=O)C(c2ccccc2)O1` (stereo not given) [Flurtamone], the collision cross section worked out at 179.28 Å² in data set [1] (setting [4]) and 175.08 Å² in data set [1] (setting [3]). The results for the “reversed-phase LC retention time” value in data set [2] (setting [4]) and in data set [2] (setting [3]) were 13.9 min and 14.2 min, respectively.

In turn, `C[Si](Cn1cncn1)(c1ccc(F)cc1)c1ccc(F)cc1` [Flusilazole] displayed a collision cross section in data set [1] (setting [4]) of 176.25 Å². In addition, the “reversed-phase LC retention time” value in data set [2] (setting [4]) turned out to be 15.2 min.

For `CCC(=O)O[C@]1(C(=O)SCF)[C@H](C)C[C@H]2[C@@H]3C[C@H](F)C4=CC(=O)C=C[C@]4(C)[C@@]3(F)[C@@H](O)C[C@@]21C` [Fluticasone propionate], the results for the collision cross section in data set [1] (setting [4]) and in data set [1] (setting [3]) were 212.76 Å² and 209.59 Å², respectively. For the same compound, the “reversed-phase LC retention time” value was determined as 15.2 min in data set [2] (setting [4]) and 15.7 min in data set [2] (setting [3]).

Regarding `CC(C)Oc1cccc(NC(=O)c2ccccc2C(F)(F)F)c1` [Flutolanil], the collision cross section in data set [1] (setting [4]) is listed as 173.43 Å²; in data set [1] (setting [3]), 176.16 Å². Further, the “reversed-phase LC retention time” value in data set [2] (setting [4]) stood at 14.3 min; in data set [2] (setting [3]), 14.7 min.

Regarding `OC(Cn1cncn1)(c1ccc(F)cc1)c1ccccc1F` (stereo not given) [Flutriafol], the collision cross section in data set [1] (setting [4]) is on record as 167.74 Å². In addition, the “reversed-phase LC retention time” value in data set [2] (setting [4]) amounted to 12.9 min.

Compound `COCCCCC(=NOCCN)c1ccc(C(F)(F)F)cc1` [Fluvoxamine] had a collision cross section in data set [1] (setting [4]) of 178.07 Å². Besides, the “reversed-phase LC retention time” value in data set [2] (setting [4]) worked out at 13.3 min.

Consider `Cn1cc(C(=O)Nc2ccccc2-c2cc(F)c(F)c(F)c2)c(C(F)F)n1` [Fluxapyroxad], for which the collision cross section in data set [1] (setting [4]) amounted to 178.14 Å²; in data set [1] (setting [3]), 180.37 Å². Also, the “reversed-phase LC retention time” value in data set [2] (setting [4]) amounted to 14.4 min; in data set [2] (setting [3]) it was 14.7 min.

For the compound `COc1ccc(-c2coc3cc(O)ccc3c2=O)cc1` [Formononetin], the values for the collision cross section in data set [1] (setting [4]) and in data set [1] (setting [3]) were 158.9 Å² and 163.97 Å², respectively. The “reversed-phase LC retention time” value in data set [2] (setting [4]) came to 13.2 min; in data set [2] (setting [3]) it was 12.2 min.

In the case of `COc1cc2ccc(=O)oc2c(O)c1O` [Fraxetin], the collision cross section in data set [1] (setting [4]) stood at 138.67 Å². The “reversed-phase LC retention time” value in data set [2] (setting [4]) was 8.29 min.

With `COc1cc2ccc(=O)oc2c(O)c1OC` [Fraxidin], the results for the collision cross section in data set [1] (setting [4]) and in data set [1] (setting [3]) were 143.3 Å² and 145.19 Å², respectively. For the same compound, the results for the “reversed-phase LC retention time” value in data set [2] (setting [4]) and in data set [2] (setting [3]) were 9.58 min and 8.57 min, respectively.

The record behind these values is the supplement of paper PMC12613149.
